Data published in patent publication US10730889B2, “Amido spirocyclic amide and sulfonamide derivatives” (Forma TM, LLC, priority 2012, dated 2020).

Tested on: A2780 cells
Assay: In-vitro cell proliferation assay (SRB, 72 hours)
Type: cell-based
Conditions: Homo sapiens, A2780, 72 h, A2780 cells, 72 hours, SRB; read-out: Cell Proliferation (IC50)

| Compound | IC50 [nM] |
| --- | --- |
| CC1(CC(=O)N2CCC3(CC2)CC3CNC(=O)N2Cc3ccncc3C2)CCN(CC(F)(F)F)CC1 (centres unmarked) [Example 403, N-[[6-[2-[4-Methyl-1-(2,2,2-trifluoroethyl)-4-piperidyl]acetyl]-6-azaspiro[2.5]octan-2-yl]methyl]-1,3-dihydropyrrolo[3,4-c]pyridine-2-carboxamide] | 2.9 |
| Cc1nccn1CC(=O)N1CCC2(CC1)CC2CNC(=O)c1cc2ccncc2o1 (centres unmarked) [Example 180, N-[[6-[2-(2-methylimidazol-1-yl)acetyl]-6-azaspiro[2.5]octan-2-yl]methyl]furo[2,3-c]pyridine-2-carboxamide] | 2460 |
| Cc1ccc(C(=O)N2CCC3(CC2)CC3CNC(=O)c2cc3ccncc3o2)cn1 (centres unmarked) [Example 233, N-[[6-(6-methylpyridine-3-carbonyl)-6-azaspiro[2.5]octan-2-yl]methyl]furo[2,3-c]pyridine-2-carboxamide] | 288 |
| O=C(NCC1CC12CCN(C(=O)NCc1ccc(Cl)c(Cl)c1)CC2)c1cc2ccncc2o1 (centres unmarked) [Example 168, N-[[6-[(3,4-dichlorophenyl)methylcarbamoyl]-6-azaspiro[2.5]octan-2-yl]methyl]furo[2,3-c]pyridine-2-carboxamide] | 2000 |
| O=C(NCC1CC12CCN(C(=O)c1cnn3ccccc13)CC2)c1cc2ccncc2o1 (centres unmarked) [Example 316, N-[[6-(pyrazolo[1,5-a]pyridine-3-carbonyl)-6-azaspiro[2.5]octan-2-yl]methyl]furo[2,3-c]pyridine-2-carboxamide] | 2000 |
| CN1CCN(CCC(=O)N2CCC3(CC2)CC3CNC(=O)c2cc3ccncc3o2)CC1 (centres unmarked) [Example 89, N-[[6-[3-(4-methylpiperazin-1-yl)propanoyl]-6-azaspiro[2.5]octan-2-yl]methyl]furo[2,3-c]pyridine-2-carboxamide] | 116 |
| Cc1cccc(CNC(=O)N2CCC3(CC2)CC3CNC(=O)c2cc3ccncc3o2)c1 (centres unmarked) [Example 158, N-[[6-(m-tolylmethylcarbamoyl)-6-azaspiro[2.5]octan-2-yl]methyl]furo[2,3-c]pyridine-2-carboxamide] | 2000 |
| O=C(NCC1CC12CCN(C(=O)C1CCS(=O)(=O)C1)CC2)c1cc2ccncc2o1 (centres unmarked) [Example 66, N-[[6-(1,1-dioxothiolane-3-carbonyl)-6-azaspiro[2.5]octan-2-yl]methyl]furo[2,3-c]pyridine-2-carboxamide] | 2000 |
| O=C(NCC1CC12CCN(C(=O)NCc1ccc(Cl)cc1)CC2)c1cc2ccncc2o1 (centres unmarked) [Example 170, N-[[6-[(4-chlorophenyl)methylcarbamoyl]-6-azaspiro[2.5]octan-2-yl]methyl]furo[2,3-c]pyridine-2-carboxamide] | 2000 |
| Cc1noc(C)c1C(=O)N1CCC2(CC1)CC2CNC(=O)c1cc2ccncc2o1 (centres unmarked) [Example 125, N-[[6-(3,5-dimethylisoxazole-4-carbonyl)-6-azaspiro[2.5]octan-2-yl]methyl]furo[2,3-c]pyridine-2-carboxamide] | 221 |
| Cn1nc(C(C)(C)C)cc1C(=O)N1CCC2(CC1)CC2CNC(=O)c1cc2ccncc2o1 (centres unmarked) [Example 296, N-[[6-(5-tert-butyl-2-methyl-pyrazole-3-carbonyl)-6-azaspiro[2.5]octan-2-yl]methyl]furo[2,3-c]pyridine-2-carboxamide] | 10.8 |
| O=C(NCC1CC12CCN(C(=O)c1cc[nH]n1)CC2)c1cc2ccncc2o1 (centres unmarked) [Example 104, N-[[6-(1H-pyrazole-3-carbonyl)-6-azaspiro[2.5]octan-2-yl]methyl]furo[2,3-c]pyridine-2-carboxamide] | 2000 |
| CC(C)N1CCC(CC(=O)N2CCC3(CC2)CC3CNC(=O)c2cc3ccncc3o2)CC1 (centres unmarked) [Example 148, N-[[6-[2-(1-isopropyl-4-piperidyl)acetyl]-6-azaspiro[2.5]octan-2-yl]methyl]furo[2,3-c]pyridine-2-carboxamide] | 102 |
| CC(C)(O)COCC(=O)N1CCC2(CC1)CC2CNC(=O)c1cc2cnccc2[nH]1 (centres unmarked) [Example 387, N-[[6-[2-(2-hydroxy-2-methyl-propoxy)acetyl]-6-azaspiro[2.5]octan-2-yl]methyl]-1H-pyrrolo[3,2-c]pyridine-2-carboxamide] | 535 |
| O=C(NCC1CC12CCN(C(=O)NCC1CCCCC1)CC2)c1cc2ccncc2o1 (centres unmarked) [Example 184, N-[[6-(cyclohexylmethylcarbamoyl)-6-azaspiro[2.5]octan-2-yl]methyl]furo[2,3-c]pyridine-2-carboxamide] | 2000 |
| CC1(O)CC(CC(=O)N2CCC3(CC2)CC3CNC(=O)c2cc3cnccc3[nH]2)C1 (centres unmarked) [Example 400, N-[[6-[2-(3-hydroxy-3-methyl-cyclobutyl)acetyl]-6-azaspiro[2.5]octan-2-yl]methyl]-1H-pyrrolo[3,2-c]pyridine-2-carboxamide] | 222 |
| O=C(NCC1CC12CCN(C(=O)c1ccc(Cn3cnnn3)cc1)CC2)c1cc2ccncc2o1 (centres unmarked) [Example 83, N-[[6-[4-(tetrazol-1-ylmethyl)benzoyl]-6-azaspiro[2.5]octan-2-yl]methyl]furo[2,3-c]pyridine-2-carboxamide] | 1080 |
| N#Cc1ccc(C(=O)N2CCC3(CC2)CC3CNC(=O)c2cc3ccncc3o2)cc1 (centres unmarked) [Example 242, N-[[6-(4-cyanobenzoyl)-6-azaspiro[2.5]octan-2-yl]methyl]furo[2,3-c]pyridine-2-carboxamide] | 713 |

| Compound | IC50 [nM] |
| --- | --- |
| O=C(NCC1CC12CCN(C(=O)c1cnc3[nH]cnc3c1)CC2)c1cc2ccncc2o1 (centres unmarked) [Example 340, N-[[6-(3H-imidazo[4,5-b]pyridine-6-carbonyl)-6-azaspiro[2.5]octan-2-yl]methyl]furo[2,3-c]pyridine-2-carboxamide] | 429 |
| O=C(NCC1CC12CCN(C(=O)c1cc(C3CC3)n[nH]1)CC2)c1cc2ccncc2o1 (centres unmarked) [Example 123, N-[[6-(3-cyclopropyl-1H-pyrazole-5-carbonyl)-6-azaspiro[2.5]octan-2-yl]methyl]furo[2,3-c]pyridine-2-carboxamide] | 83 |
| Cc1ncoc1C(=O)N1CCC2(CC1)CC2CNC(=O)N1Cc2ccncc2C1 (centres unmarked) [Example 415, N-[[6-(4-methyloxazole-5-carbonyl)-6-azaspiro[2.5]octan-2-yl]methyl]-1,3-dihydropyrrolo[3,4-c]pyridine-2-carboxamide] | 14.2 |
| O=C1COc2ccc(C(=O)N3CCC4(CC3)CC4CNC(=O)c3cc4ccncc4o3)cc2N1 (centres unmarked) [Example 258, N-[[6-(3-oxo-4H-1,4-benzoxazine-6-carbonyl)-6-azaspiro[2.5]octan-2-yl]methyl]furo[2,3-c]pyridine-2-carboxamide] | 20.3 |
| CN1CCN(C(=O)c2ccc(C(=O)N3CCC4(CC3)CC4CNC(=O)N3Cc4ccncc4C3)cc2)CC1 (centres unmarked) [Example 372, N-[[6-[4-(4-methylpiperazine-1-carbonyl)benzoyl]-6-azaspiro[2.5]octan-2-yl]methyl]-1,3-dihydropyrrolo[3,4-c]pyridine-2-carboxamide] | 27.5 |
| CCn1ncc(C(=O)N2CCC3(CC2)CC3CNC(=O)c2cc3ccncc3o2)c1C (centres unmarked) [Example 124, N-[[6-(1-ethyl-5-methyl-pyrazole-4-carbonyl)-6-azaspiro[2.5]octan-2-yl]methyl]furo[2,3-c]pyridine-2-carboxamide] | 124 |
| Nc1ccc(CC(=O)N2CCC3(CC2)CC3CNC(=O)N2Cc3ccncc3C2)cn1 (centres unmarked) [Example 394, N-[[6-[2-(6-Amino-3-pyridyl)acetyl]-6-azaspiro[2.5]octan-2-yl]methyl]-1,3-dihydropyrrolo[3,4-c]pyridine-2-carboxamide] | 14.5 |
| COc1ccc(CNC(=O)N2CCC3(CC2)CC3CNC(=O)c2cc3ccncc3o2)cc1 (centres unmarked) [Example 167, N-[[6-[(4-methoxyphenyl)methylcarbamoyl]-6-azaspiro[2.5]octan-2-yl]methyl]furo[2,3-c]pyridine-2-carboxamide] | 2000 |
| Cc1nn(C)cc1-c1cc(C(=O)N2CCC3(CC2)CC3CNC(=O)c2cc3ccncc3o2)no1 (centres unmarked) [Example 305, N-[[6-[5-(1,3-dimethylpyrazol-4-yl)isoxazole-3-carbonyl]-6-azaspiro[2.5]octan-2-yl]methyl]furo[2,3-c]pyridine-2-carboxamide] | 61.2 |
| O=C(NCC1CC12CCN(C(=O)c1n[nH]c3cc(F)ccc13)CC2)c1cc2ccncc2o1 (centres unmarked) [Example 312, N-[[6-(6-fluoro-1H-indazole-3-carbonyl)-6-azaspiro[2.5]octan-2-yl]methyl]furo[2,3-c]pyridine-2-carboxamide] | 9.61 |
| CC(C(=O)N1CCC2(CC1)CC2CNC(=O)c1cc2ccncc2o1)N1CCOCC1 (centres unmarked) [Example 75, N-[[6-(2-morpholinopropanoyl)-6-azaspiro[2.5]octan-2-yl]methyl]furo[2,3-c]pyridine-2-carboxamide] | 80.9 |
| Cc1cnn(C(C)(C)C)c1C(=O)N1CCC2(CC1)CC2CNC(=O)c1cc2ccncc2o1 (centres unmarked) [Example 298, N-[[6-(2-tert-butyl-4-methyl-pyrazole-3-carbonyl)-6-azaspiro[2.5]octan-2-yl]methyl]furo[2,3-c]pyridine-2-carboxamide] | 103 |
| O=C(NCC1CC12CCN(C(=O)c1ccnc3ncccc13)CC2)c1cc2ccncc2o1 (centres unmarked) [Example 267, N-[[6-(1,8-naphthyridine-4-carbonyl)-6-azaspiro[2.5]octan-2-yl]methyl]furo[2,3-c]pyridine-2-carboxamide] | 2000 |
| CCn1nc(C)c(C(=O)N2CCC3(CC2)CC3CNC(=O)c2cc3ccncc3o2)c1C (centres unmarked) [Example 314, N-[[6-(1-ethyl-3,5-dimethyl-pyrazole-4-carbonyl)-6-azaspiro[2.5]octan-2-yl]methyl]furo[2,3-c]pyridine-2-carboxamide] | 6.76 |
| O=C(NCC1CC12CCN(C(=O)c1cccnn1)CC2)c1cc2ccncc2o1 (centres unmarked) [Example 110, N-[[6-(pyridazine-3-carbonyl)-6-azaspiro[2.5]octan-2-yl]methyl]furo[2,3-c]pyridine-2-carboxamide] | 2000 |
| O=C(NCC1CC12CCN(C(=O)NCc1ccccc1F)CC2)c1cc2ccncc2o1 (centres unmarked) [Example 161, N-[[6-[(2-fluorophenyl)methylcarbamoyl]-6-azaspiro[2.5]octan-2-yl]methyl]furo[2,3-c]pyridine-2-carboxamide] | 2000 |
| O=C(NCC1CC12CCN(C(=O)CC1CC1)CC2)c1cc2ccncc2o1 (centres unmarked) [Example 32, N-[[6-(2-cyclopropylacetyl)-6-azaspiro[2.5]octan-2-yl]methyl]furo[2,3-c]pyridine-2-carboxamide] | 2000 |
